The numbers were not newly measured in patent publication US11134680B2, “Disinfectant having organic acids” (Bode Chemie GmbH, priority 2015, dated 2021), which cites them from elsewhere.

Data set [1] concerns Staphylococcus aureus. Conditions: exposure time of 72 hours.
For data set [2] the following is noted: at 20° C.
The subject of data set [3] is C. albicans. Conditions: 72 hours.

Regarding `CC(=O)O` [acetic acid], the “minimum inhibitory concentration (MIC)” value in data set [1] is 9%. As a reminder, the pKa is the pH at which an ionisable group is half protonated. `CC(O)C(=O)O` (centres unmarked) [lactic acid]: the pKa in data set [2] is listed as 3.87. Moreover, in data set [1] (concentration of 0.3%), the reduction factor is reported as greater than 5 log. Consider `O=C([O-])c1ccccc1.[Na+]` [sodium benzoate], for which the MMC in data set [3] (>5 log) was 1200 µg/mL. Moreover, in data set [3] (application solution of 0.12%), the “reduction (microbicidal action)” value was greater than 5 log.
